Laboratory results published in patent US20150025120A1, “PYRAZOLE-ALCOHOL COMPOUNDS AND PHARMACEUTICAL USE THEREOF” (JAPAN TOBACCO INC., priority 2013, published 2015).

System: tissue PDH activity
Test: Ex vivo PDH activation assay (liver and epididymal adipose tissue after oral administration)
Assay type: in vivo, Sprague-Dawley rats
Conditions: 3 mg/kg, rat, mean ± standard deviation
Experimental: The action of test compound on tissue PDH activity was evaluated. NADH production was detected via p-iodonitrotetrazolium violet (INT)-coupled system to measure PDH activity.
Normal male Sprague-Dawley rats were randomly allocated to the vehicle group and the test compound groups. The vehicle (0.5% aqueous methylcellulose solution, 5 mL/kg) or the test compound was orally administered to the rats. At 5 or 20 hr after administration, the rats were anesthetized with an intraperitoneal injection of sodium pentobarbital (60 mg/kg), and liver slices and epididymal adipose tissues were collected.
(§1) To the liver slices were rapidly added 9 volumes of ice-cold homogenization buffer (0.25 mol/L sucrose, 5 mmol/L tris(hydroxymethyl)aminomethane hydrochloride (pH 7.5), 2 mmol/L EDTA), and the mixtures were homogenized using a Polytron homogenizer. The homogenates were centrifuged at 600×g, 4° C. for 10 min to obtain the supernatant. The supernatants (1 mL) were centrifuged at 16,000×g, 4° C. for 10 min to collect the precipitates. The precipitates were washed by resuspension in the homogenization buffer (1 mL) and centrifuged in the same manner. The precipitates were frozen with liquid nitrogen and stored at −80° C. as the liver mitochondrial fraction.
as §1, with “adipose tissues” for “liver slices”, “3” for “9”, “of an” for “of”, “buffer,” for “buffer (0.25 mol/L sucrose, 5 mmol/L tris(hydroxymethyl)aminomethane hydrochloride (pH 7.5), 2 mmol/L EDTA),”, “supernatants” for “supernatants (1 mL)”, “adipose tissue” for “liver”
The mitochondrial fractions were thawed and suspended with the sample buffer (0.25 mol/L sucrose, 20 mmol/L tris(hydroxymethyl)aminomethane hydrochloride (pH 7.5), 50 mmol/L potassium chloride, and 1 mL/L 4-(1,1,3,3-tetramethylbutyl)phenyl-polyethylene glycol (Triton X-100)). Active PDH activity (PDHa activity) and total PDH activity (PDHt activity) were measured to evaluate the PDH activity. For the measurement of the PDHt activity, equal amounts of the mitochondrial suspension and the activation buffer (0.25 mol/L sucrose, 20 mmol/L tris(hydroxymethyl)aminomethane hydrochloride (pH 7.5), 50 mmol/L potassium chloride, 1 mL/L Triton X-100, 4 mmol/L calcium chloride, 40 mmol/L magnesium chloride, 10 mmol/L sodium dichloroacetate) were mixed, and the mixtures were incubated at 37° C. for 10 min. Forty microliters of the mitochondrial suspensions diluted with a sample buffer were added to a 96-well microplate for activity measurement and blank measurement. Then 180 μL of the reaction mixture (0.056 mmol/L potassium phosphate buffer (pH 7.5), 5.6 mmol/L DL-carnitine, 2.8 mmol/L NAD, 0.22 mmol/L thiamin pyrophosphate, 0.11 mmol/L Coenzyme A, 1.1 mL/L Triton X-100, 1.1 mmol/L magnesium chloride, 1.1 g/L bovine serum albumin, 0.67 mmol/L INT, 7.2 μmol/L phenazine methosulfate, 28 mmol/L sodium oxamate) was added to each well, and then 20 μL of 50 mmol/L sodium pyruvate for activity measurement or water for blank measurement were added. The mixtures were incubated at room temperature under shading. The absorbances at 500-750 nm, which were attributable to reduction of INT, the final electron acceptor, were measured using a microplate reader over time and the changes in the absorbance were calculated. The PDH activity was calculated by subtraction of the change in absorbance of the blank well from that of the activity measurement well. The percentage of the PDHa activity to the PDHt activity was calculated and taken as an index of the PDH activation.

[1] = adipose tissue, 5 hr after oral administration
[2] = adipose tissue, 20 hr after oral administration
[3] = liver, 5 hr after oral administration
[4] = liver, 20 hr after oral administration

Row | Structure (SMILES) | PDHa activity (% PDHt activity) [1] | PDHa activity (% PDHt activity) [2] | PDHa activity (% PDHt activity) [3] | PDHa activity (% PDHt activity) [4]
1 | C[C@H](O)COc1cc(-c2cnn(CC(C)(C)O)c2)c2c(c1)[C@@](O)(C(F)(F)F)c1ccccc1-2 [compound (1), (9R)-4-[1-(2-hydroxy-2-methylpropyl)-1H-pyrazol-4-yl]-2-((2S)-2-hydroxypropoxy)-9-(trifluoromethyl)-9H-fluoren-9-ol] | 64 ± 5 % PDHt activity | 56 ± 6 % PDHt activity | 60 ± 8 % PDHt activity | 13 ± 2 % PDHt activity
2 | CC(C)(O)COc1cc(-c2cnn(CC(C)(C)O)c2)c2c(c1)[C@@](O)(C(F)(F)F)c1ccccc1-2 [compound (2), (9R)-2-(2-hydroxy-2-methylpropoxy)-4-[1-(2-hydroxy-2-methylpropyl)-1H-pyrazol-4-yl]-9-(trifluoromethyl)-9H-fluoren-9-ol] | 58 ± 10 % PDHt activity | 36 ± 7 % PDHt activity | 67 ± 9 % PDHt activity | 16 ± 9 % PDHt activity
3 | CC(C)(O)CCCOc1cc(-c2cnn(CC(C)(C)O)c2)c2c(c1)[C@@](O)(C(F)(F)F)c1ccccc1-2 [compound (4), (9R)-2-(4-hydroxy-4-methylpentyloxy)-4-[1-(2-hydroxy-2-methylpropyl)-1H-pyrazol-4-yl]-9-(trifluoromethyl)-9H-fluoren-9-ol] | 62 ± 13 % PDHt activity |  | 68 ± 11 % PDHt activity | 
4 | NC(=O)Cn1cc(-c2cc(OCCC34CC5CC(CC(O)(C5)C3)C4)cc3c2-c2ccccc2[C@]3(O)C(F)(F)F)cn1 [compound (A), 2-(4-{(9R)-9-Hydroxy-2-[2-(3-hydroxyadamantan-1-yl)ethoxy]-9-(trifluoromethyl)-9H-fluoren-4-yl}-1H-pyrazol-1-yl)acetamide, reference compound] | 32 ± 14 % PDHt activity | 24 ± 7 % PDHt activity | 35 ± 6 % PDHt activity | 16 ± 10 % PDHt activity
5 | Cn1cc(-c2cc(OCC(C)(C)O)cc3c2-c2ccccc2[C@]3(O)C(F)(F)F)cn1 [compound (B), (9R)-2-(2-Hydroxy-2-methylpropoxy)-4-(1-methyl-1H-pyrazol-4-yl)-9-(trifluoromethyl)-9H-fluoren-9-ol, reference compound] | 59 ± 5 % PDHt activity | 30 ± 4 % PDHt activity | 43 ± 7 % PDHt activity | 10 ± 3 % PDHt activity
